Active and inactive are the calls of the source.
Legend:
[1] = target: T1, Lytic switch protein BZLF1 (Epstein-Barr virus (strain B95-8) (HHV-4) (Human herpesvirus 4), UniProt P03206); assay: EBV ZTA inhibitors, dose response, counter-screen for EBNA-1 inhibitor project, biochemical, fluorescence polarization, Epstein-Barr virus, 1536-well (AID 2377); set-up: species or system human gammaherpesvirus 4;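 note: fluorescence polarization of Cy5-labelled ZRE DNA probe bound by purified Zta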
T1 sequence (P03206 whole entry): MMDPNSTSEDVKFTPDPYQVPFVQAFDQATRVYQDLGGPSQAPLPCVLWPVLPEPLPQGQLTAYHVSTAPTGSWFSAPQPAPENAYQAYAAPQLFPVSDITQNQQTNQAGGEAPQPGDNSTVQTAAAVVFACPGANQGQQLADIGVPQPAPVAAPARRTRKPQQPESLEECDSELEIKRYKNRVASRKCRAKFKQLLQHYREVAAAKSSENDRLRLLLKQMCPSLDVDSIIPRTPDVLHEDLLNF

[2] = target: T2, Epstein-Barr nuclear antigen 1 (Epstein-Barr virus (strain B95-8) (HHV-4) (Human herpesvirus 4), UniProt P03211); assay: EBNA-1 inhibitors, dose response, biochemical, fluorescence polarization, 1536-well (AID 2381); set-up: species or system human gammaherpesvirus 4;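 note: fluorescence polarization of a Cy5 DNA probe bound by EBNA-1 protein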
T2 sequence (P03211 whole entry): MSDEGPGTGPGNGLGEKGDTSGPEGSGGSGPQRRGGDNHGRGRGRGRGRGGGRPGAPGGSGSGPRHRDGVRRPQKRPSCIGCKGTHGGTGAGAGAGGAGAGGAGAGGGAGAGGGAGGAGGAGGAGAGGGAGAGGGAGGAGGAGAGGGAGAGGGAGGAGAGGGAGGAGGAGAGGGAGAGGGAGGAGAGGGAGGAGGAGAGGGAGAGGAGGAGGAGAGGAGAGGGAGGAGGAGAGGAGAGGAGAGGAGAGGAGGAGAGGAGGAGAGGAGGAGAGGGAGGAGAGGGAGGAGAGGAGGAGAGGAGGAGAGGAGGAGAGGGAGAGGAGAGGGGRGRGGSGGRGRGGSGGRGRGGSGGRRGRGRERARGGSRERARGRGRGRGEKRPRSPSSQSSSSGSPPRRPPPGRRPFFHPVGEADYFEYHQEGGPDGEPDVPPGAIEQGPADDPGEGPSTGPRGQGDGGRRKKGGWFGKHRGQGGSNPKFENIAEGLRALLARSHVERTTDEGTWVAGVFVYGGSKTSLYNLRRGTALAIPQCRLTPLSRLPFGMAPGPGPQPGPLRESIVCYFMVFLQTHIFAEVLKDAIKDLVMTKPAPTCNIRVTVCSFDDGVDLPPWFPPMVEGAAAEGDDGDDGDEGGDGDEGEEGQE

[3] = inhibitors of intracellular T. cruzi replication, confirmation, NIH3T3 host cells, beta-gal luminescence (AID 2044); type: functional, cell-based;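 note: intracellular parasites grown in NIH/3T3 mouse fibroblasts as host cells; luminescent beta-galactosidase reporter signal from transgenic T. cruzi replicating inside host cells; inhibitors lower the luminescence signal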
[4] = cytotoxicity toward NIH3T3 fibroblasts, dose response, counter-screen, cell-based, ATP luminescence, mouse fibroblasts (AID 2010); type: functional;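 note: cells exposed to compound for about 90 hours before reading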
[5] = target: Induced myeloid leukemia cell differentiation protein Mcl-1 (Homo sapiens, UniProt Q07820); type: functional
Induced myeloid leukemia cell differentiation protein Mcl-1, sequence (Q07820 whole entry): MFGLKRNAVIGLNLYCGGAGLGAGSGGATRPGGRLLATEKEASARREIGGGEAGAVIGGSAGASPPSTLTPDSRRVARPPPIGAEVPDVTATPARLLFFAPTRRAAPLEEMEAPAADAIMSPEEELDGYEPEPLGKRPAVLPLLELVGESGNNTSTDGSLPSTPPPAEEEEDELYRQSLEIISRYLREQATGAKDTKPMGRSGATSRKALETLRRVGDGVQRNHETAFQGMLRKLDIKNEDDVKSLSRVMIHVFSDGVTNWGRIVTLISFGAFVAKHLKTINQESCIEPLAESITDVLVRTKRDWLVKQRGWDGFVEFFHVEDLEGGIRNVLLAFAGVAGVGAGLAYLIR

Estrogen receptor beta = Estrogen receptor beta (Homo sapiens, UniProt Q92731);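 note: recombinant ER-beta bound to coactivator SRC1 peptide in presence of estradiol agonist; inhibitors block coactivator peptide binding and lower the FRET signal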
Estrogen receptor beta, sequence (Q92731 whole entry): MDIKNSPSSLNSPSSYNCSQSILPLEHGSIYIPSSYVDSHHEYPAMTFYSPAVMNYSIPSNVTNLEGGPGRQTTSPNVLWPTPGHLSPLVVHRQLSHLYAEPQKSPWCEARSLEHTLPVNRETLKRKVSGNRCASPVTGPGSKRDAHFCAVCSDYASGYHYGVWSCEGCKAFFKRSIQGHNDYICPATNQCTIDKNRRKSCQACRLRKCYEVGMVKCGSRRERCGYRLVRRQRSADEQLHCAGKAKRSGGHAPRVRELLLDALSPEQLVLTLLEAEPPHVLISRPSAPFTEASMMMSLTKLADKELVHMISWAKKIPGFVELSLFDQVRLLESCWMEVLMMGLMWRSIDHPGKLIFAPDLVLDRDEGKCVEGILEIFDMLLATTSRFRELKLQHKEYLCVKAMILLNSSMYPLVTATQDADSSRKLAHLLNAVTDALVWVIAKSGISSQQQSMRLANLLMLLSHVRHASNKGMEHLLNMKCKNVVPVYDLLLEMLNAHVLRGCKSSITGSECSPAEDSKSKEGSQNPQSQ

[6] = target: T3, Ubiquitin carboxyl-terminal hydrolase BAP1 (Homo sapiens, UniProt Q92560); assay: BAP1 deubiquitinase inhibitors, dose response, biochemical (AID 714); type: functional
T3 sequence (Q92560 whole entry): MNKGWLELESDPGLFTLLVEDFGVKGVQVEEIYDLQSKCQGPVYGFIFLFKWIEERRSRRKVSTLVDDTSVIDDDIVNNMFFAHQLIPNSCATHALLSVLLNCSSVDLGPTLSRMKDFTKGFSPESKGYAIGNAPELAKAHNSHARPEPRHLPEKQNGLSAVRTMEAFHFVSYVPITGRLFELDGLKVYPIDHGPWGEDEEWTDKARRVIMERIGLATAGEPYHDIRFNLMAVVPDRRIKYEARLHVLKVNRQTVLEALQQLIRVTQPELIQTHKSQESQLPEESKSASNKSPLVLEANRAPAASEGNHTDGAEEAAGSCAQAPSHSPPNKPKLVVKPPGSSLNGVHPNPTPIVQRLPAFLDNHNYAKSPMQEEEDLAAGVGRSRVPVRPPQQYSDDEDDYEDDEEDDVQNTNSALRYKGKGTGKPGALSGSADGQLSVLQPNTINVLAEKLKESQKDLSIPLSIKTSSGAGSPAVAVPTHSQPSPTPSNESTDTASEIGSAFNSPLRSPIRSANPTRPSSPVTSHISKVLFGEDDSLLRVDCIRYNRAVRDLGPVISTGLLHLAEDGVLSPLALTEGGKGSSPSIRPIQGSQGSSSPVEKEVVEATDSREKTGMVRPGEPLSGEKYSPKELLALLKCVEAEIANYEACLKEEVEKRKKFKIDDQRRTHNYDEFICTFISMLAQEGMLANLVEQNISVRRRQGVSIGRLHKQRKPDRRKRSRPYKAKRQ

[7] = target: Photoreceptor-specific nuclear receptor (Homo sapiens, UniProt Q9Y5X4); assay: NR2E3 inverse agonists, dose response, biochemical, TR-FRET (AID 463256); type: functional
Photoreceptor-specific nuclear receptor, sequence (Q9Y5X4 whole entry): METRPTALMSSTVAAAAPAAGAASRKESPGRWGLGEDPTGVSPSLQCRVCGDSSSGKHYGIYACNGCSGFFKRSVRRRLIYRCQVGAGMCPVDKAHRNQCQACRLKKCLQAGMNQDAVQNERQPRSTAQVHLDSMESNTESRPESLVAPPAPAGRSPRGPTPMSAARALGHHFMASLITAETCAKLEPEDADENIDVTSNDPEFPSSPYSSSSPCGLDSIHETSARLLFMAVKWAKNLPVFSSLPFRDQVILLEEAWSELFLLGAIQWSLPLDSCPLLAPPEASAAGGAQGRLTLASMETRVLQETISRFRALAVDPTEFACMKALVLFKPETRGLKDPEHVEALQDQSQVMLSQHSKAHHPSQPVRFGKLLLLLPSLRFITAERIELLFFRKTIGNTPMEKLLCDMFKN

[8] = target: Peroxisome proliferator-activated receptor gamma/Nuclear receptor corepressor 2 (Homo sapiens, UniProt P37231+Q9Y618); assay: Counterscreen for NR2E3 inverse agonists: TR-FRET-based biochemical high throughput dose response assay to identify inverse agonists of the interaction between peroxisome proliferator-activated receptor gamma (PPARg) and nuclear receptor co-repressor 2 (NCOR2).; type: functional
Peroxisome proliferator-activated receptor gamma/Nuclear receptor corepressor 2, sequence (P37231 whole entry): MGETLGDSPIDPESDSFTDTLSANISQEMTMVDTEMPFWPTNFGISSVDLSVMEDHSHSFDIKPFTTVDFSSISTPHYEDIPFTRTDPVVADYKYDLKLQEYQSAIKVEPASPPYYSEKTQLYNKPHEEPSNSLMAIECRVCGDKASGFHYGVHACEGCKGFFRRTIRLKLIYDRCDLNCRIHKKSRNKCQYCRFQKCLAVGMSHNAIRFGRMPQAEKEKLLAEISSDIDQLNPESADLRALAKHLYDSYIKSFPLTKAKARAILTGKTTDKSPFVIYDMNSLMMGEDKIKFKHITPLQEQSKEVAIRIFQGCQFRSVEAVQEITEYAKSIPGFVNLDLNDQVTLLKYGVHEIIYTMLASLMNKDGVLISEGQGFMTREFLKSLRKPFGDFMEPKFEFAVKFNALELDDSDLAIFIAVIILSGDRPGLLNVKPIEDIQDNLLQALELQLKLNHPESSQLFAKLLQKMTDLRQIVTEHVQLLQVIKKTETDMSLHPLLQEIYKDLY
Peroxisome proliferator-activated receptor gamma/Nuclear receptor corepressor 2, sequence (Q9Y618 whole entry): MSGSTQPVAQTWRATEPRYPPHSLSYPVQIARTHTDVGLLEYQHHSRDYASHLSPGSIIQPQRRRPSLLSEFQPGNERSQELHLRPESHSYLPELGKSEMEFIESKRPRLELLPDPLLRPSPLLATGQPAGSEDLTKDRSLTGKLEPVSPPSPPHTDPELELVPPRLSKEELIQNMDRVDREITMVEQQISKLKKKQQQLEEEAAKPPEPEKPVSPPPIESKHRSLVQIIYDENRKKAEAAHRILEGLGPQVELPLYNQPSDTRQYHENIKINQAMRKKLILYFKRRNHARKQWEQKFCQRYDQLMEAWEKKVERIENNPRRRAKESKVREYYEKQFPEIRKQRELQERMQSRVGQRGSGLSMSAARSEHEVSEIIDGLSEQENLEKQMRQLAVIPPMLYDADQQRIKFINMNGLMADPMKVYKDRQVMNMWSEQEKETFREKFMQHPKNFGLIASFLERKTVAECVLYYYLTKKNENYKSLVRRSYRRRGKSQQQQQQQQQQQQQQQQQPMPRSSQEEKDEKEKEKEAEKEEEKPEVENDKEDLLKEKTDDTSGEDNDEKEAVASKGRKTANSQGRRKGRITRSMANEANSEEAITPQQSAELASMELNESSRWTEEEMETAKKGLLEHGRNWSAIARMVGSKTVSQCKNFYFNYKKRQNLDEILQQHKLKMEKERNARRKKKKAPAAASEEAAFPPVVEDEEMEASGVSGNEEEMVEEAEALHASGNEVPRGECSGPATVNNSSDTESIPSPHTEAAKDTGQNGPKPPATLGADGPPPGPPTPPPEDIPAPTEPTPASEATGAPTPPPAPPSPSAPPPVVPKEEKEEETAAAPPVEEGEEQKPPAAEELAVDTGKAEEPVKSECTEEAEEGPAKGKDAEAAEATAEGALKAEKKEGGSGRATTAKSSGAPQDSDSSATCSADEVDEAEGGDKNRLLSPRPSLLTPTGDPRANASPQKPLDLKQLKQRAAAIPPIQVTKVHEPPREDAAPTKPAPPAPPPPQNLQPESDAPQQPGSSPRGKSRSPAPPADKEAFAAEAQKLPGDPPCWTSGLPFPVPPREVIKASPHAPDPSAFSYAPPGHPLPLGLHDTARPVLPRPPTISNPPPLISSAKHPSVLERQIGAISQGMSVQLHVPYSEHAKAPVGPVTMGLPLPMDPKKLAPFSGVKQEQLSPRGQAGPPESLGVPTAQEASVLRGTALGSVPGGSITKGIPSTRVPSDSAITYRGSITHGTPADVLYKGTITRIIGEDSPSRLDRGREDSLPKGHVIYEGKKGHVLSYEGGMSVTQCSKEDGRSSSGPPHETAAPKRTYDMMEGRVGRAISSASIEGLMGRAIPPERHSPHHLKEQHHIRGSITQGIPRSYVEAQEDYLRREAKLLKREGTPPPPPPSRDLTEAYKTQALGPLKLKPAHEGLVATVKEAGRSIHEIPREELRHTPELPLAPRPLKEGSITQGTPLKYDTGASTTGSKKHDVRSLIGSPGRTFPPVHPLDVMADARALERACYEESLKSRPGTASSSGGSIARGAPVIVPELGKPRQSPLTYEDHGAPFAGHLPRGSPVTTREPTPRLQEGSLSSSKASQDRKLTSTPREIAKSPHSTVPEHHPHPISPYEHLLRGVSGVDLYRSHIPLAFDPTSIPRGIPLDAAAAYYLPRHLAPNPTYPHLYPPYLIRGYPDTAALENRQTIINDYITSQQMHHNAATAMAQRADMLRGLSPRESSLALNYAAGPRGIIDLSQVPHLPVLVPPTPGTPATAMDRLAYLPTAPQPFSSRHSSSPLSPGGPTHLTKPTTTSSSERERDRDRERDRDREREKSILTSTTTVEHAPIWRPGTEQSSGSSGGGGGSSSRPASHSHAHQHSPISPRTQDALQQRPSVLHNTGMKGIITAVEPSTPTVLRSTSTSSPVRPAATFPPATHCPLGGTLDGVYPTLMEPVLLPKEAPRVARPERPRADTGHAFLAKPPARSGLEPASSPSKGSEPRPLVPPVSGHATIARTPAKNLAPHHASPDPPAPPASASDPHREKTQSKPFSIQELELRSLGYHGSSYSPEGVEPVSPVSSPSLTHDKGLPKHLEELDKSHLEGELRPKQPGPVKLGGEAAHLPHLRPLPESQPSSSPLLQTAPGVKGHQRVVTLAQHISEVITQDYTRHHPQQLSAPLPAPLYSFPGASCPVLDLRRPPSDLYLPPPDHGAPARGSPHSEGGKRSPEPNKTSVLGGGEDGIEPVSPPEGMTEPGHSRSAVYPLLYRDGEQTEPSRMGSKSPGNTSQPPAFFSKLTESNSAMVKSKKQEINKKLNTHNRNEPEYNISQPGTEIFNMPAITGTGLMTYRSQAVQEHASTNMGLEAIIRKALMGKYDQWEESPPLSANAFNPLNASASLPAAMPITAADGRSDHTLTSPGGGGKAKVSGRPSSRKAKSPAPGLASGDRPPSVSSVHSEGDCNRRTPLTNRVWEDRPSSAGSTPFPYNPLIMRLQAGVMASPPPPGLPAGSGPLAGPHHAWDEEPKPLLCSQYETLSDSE

[9] = A cytotoxicity screen of small molecule inhibitors of the PhoP region in Salmonella typhi identified in the primary screen. [Related pubchem assays: 1850, 1864, 1985 ]; type: functional
[10] = HepG2 cell cytotoxicity, dose response, cytotoxicity control, plate reader, cherry-pick, antagonist series (AID 743416); type: functional, cell-based
[11] = HEK293 cell cytotoxicity, dose response, cytotoxicity control, plate reader, cherry-picked samples (AID 743446); type: functional, cell-based
[12] = cytotoxicity in MIN6 insulinoma cells, dose response, cytotoxicity control, cell-based, mouse insulinoma (AID 2122); type: functional;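 note: confirmatory high-throughput counterscreen run to flag cytotoxic compounds; mouse MIN-6 beta cells carrying an insulin promoter eGFP reporter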
[13] = target: T4, Sphingosine 1-phosphate receptor 4 (Homo sapiens, UniProt O95977); assay: Fluorescence dose response cell-based high throughput screening assay for antagonists of the Sphingosine 1-Phosphate Receptor 4 (S1P4). [Related pubchem assays: 1524 (Confirmation in triplicates.), 1510 (Primary screen.)]; type: functional
T4 sequence (O95977 whole entry): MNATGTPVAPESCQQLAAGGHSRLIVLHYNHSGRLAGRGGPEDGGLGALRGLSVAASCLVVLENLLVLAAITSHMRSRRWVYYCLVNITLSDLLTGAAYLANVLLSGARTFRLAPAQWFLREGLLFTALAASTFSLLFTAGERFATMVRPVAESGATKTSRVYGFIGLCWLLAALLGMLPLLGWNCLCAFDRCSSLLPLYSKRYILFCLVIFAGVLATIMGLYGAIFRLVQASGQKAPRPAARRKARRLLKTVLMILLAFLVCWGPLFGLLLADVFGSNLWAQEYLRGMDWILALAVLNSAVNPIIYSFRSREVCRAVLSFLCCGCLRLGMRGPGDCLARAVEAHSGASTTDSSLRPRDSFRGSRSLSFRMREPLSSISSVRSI

[14] = HepG2 cell cytotoxicity, dose response, cytotoxicity control for Shn3 inhibitor project, CellTiter-Glo, cherry-picked (AID 624134); type: functional, cell-based
[15] = Shn3 3'UTR reporter inhibitors, dose response, cell-based, Clone20 osteoblasts, firefly luciferase, cherry-picked (AID 624132); type: functional;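 note: firefly luciferase luminescence from reporter carrying the Shn3 3'UTR in osteoblasts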
[16] = target: Sphingosine 1-phosphate receptor 1 (Homo sapiens, UniProt P21453); type: functional;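 note: Tango beta-arrestin reporter U2OS cells stimulated with S1P near its EC80; inhibitor potency meaning antagonism of receptor activation by the natural agonist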
Sphingosine 1-phosphate receptor 1, sequence (P21453 whole entry): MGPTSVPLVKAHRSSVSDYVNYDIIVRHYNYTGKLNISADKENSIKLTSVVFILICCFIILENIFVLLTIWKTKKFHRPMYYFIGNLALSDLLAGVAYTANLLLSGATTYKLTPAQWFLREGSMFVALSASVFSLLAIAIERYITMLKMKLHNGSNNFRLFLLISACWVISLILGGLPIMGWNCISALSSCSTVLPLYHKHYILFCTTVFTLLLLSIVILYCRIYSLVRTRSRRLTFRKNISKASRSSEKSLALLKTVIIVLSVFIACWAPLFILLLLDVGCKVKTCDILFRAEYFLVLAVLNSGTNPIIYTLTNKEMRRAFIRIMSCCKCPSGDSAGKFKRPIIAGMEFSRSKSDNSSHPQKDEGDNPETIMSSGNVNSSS

[17] = LGR2 antagonists, dose response, cell-based, HEK293, CRE-luciferase reporter, cherry pick, set 2 (AID 743343); type: functional;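 note: transfected cells were stimulated with diluted bursicon conditioned medium after compound addition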
[18] = insulin promoter down-regulators in MIN6 cells, imaging, high-content screening, mouse beta cells (AID 1628); type: functional
[19] = control 3'UTR Renilla luciferase suppression, dose response, counter-screen for Shn3 inhibitor project, cell-based, Clone20-Shn3RL, cherry-picked (AID 624133); type: functional
[20] = MC4R antagonists, dose response, counter-screen for LGR2 antagonist project, cell-based, plate reader, cherry pick (AID 743444); type: functional;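 note: transfected HEK 293 cells stimulated with alpha-MSH peptide; potency of inhibitors of the alpha-MSH evoked signal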
[21] = A549 cell cytotoxicity, dose response, cytotoxicity control, plate reader, cherry-pick, antagonist series (AID 743412); type: functional, cell-based
Paired box protein Pax-8 = Paired box protein Pax-8 (Homo sapiens, UniProt Q06710); assay: inhibitors of PAX8-driven TPO luciferase reporter, dose response, RMG-I cells, cherry-pick (AID 687027); type: functional, cell-based;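 note: luciferase reporter driven by Pax8 target thyroperoxidase promoter measured by SteadyGlo luminescence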
[22] = growth suppression of PTEN-null colon cells, dose response, cell-based, HCT116 PTEN knockout (AID 1047); type: functional;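 note: HCT116 colon tumor cells with PTEN knocked out; cells exposed to compound for 60 hours before readout; potency for loss of cell viability measured by luminescence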
[23] = growth suppression of beta-catenin-knockout colon cells, dose response, cell-based, HCT116, human colon tumor (AID 1045); type: functional;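 note: HCT116 colon tumor cells with beta catenin knocked out; cells exposed to compound for 60 hours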
[24] = target: Luciferin 4-monooxygenase (Photinus pyralis, UniProt P08659); assay: firefly luciferase enzyme inhibitors, dose response, biochemical, luminescence (AID 1891)
[25] = Luminescence Cell-Based Dose Confirmation HTS to Identify Inhibitors of Platelet Dense Granule Release. [Related pubchem assays: 1663 (Primary HTS), 1678 (Summary of Project)]; type: functional
Cytochrome P450 2C9 = Cytochrome P450 2C9 (Homo sapiens, UniProt P11712)

COc1ccc(N2CC(=O)C(c3nc4ccccc4s3)=C2N)cc1
IC50 [1]: > 111 µM (not active) | IC50 [2]: 11.2 µM (not active)

Cc1ccsc1C(=O)C1CCCN(Cc2cnc(N3CCCC3)s2)C1 (stereo unspecified)
EC50 (cells): 0.137 µM (active) | EC50 [3]: < 0.1 µM (active) | EC50 [4]: > 60 µM (not active)

CCN(c1ccc(NC(=O)COC(=O)c2ccc(C)c(S(=O)(=O)N3CCOCC3)c2)cc1)C(C)C
IC50 [5]: 1.67 µM (not active)

Cc1ccc(CCNS(=O)(=O)c2c[nH]cn2)cc1
IC50 (Estrogen receptor beta): > 50 µM (not active)

CCCCN(CC)CCCNC(=O)C1CCN(c2ncnc3c2sc2cccc(F)c23)CC1
EC50 (cells): 0.294 µM (active) | EC50 [3]: < 0.1 µM (active) | EC50 [4]: > 30 µM (not active)

COCCOC(=O)c1c(NC(=O)COC(=O)Cc2cccc(OC)c2)sc(C(N)=O)c1C
IC50 [1]: > 111 µM (not active) | IC50 [2]: > 5.47 µM (active)

COc1ccc(CNS(=O)(=O)c2ccc(S(=O)(=O)N3CCCCC3)cc2)cc1
IC50 [6]: > 50 µM (not active)

O=C(CSc1ccc(-c2cccs2)nn1)N1CCCCC1
IC50 [7]: 2.64 µM (active) | IC50 [8]: 8.03 µM (active)

O=C(CSC1=NCCS1)Nc1nc2c(s1)CCCC2
EC50 [9]: > 50 µM (active)

COc1ccc(C(=O)Nc2ccc(NC(=O)c3cccs3)cn2)cc1
IC50 [7]: 7.18 µM (active) | IC50 [8]: 7.65 µM (active)

CCN1C(=O)N/C(=C/c2cc(C)n(Cc3ccccc3)c2C)C1=O
EC50 [9]: > 50 µM (active)

COc1ccc(-n2ncc(Cl)c(Cl)c2=O)cc1
AC50 [10]: 8.23 µM (active) | AC50 [11]: 7.88 µM (active) | IC50 [12]: 1.11 µM (active) | IC50 [13]: 2.09 µM (active) | AC50 [14]: 32.9 µM (active) | AC50 [15]: 3.36 µM (active) | EC50 [3]: 1.59 µM (active) | IC50 [16]: 21.6 µM (not active) | AC50 [17]: 20.2 µM (active) | IC50 [18]: 1.56 µM (active) | AC50 [19]: 8.07 µM (active) | EC50 [4]: 2.03 µM (active) | AC50 [20]: 26.5 µM (active) | AC50 [21]: 10.8 µM (active) | AC50 (Paired box protein Pax-8): 5.62 µM (active)

CC(=O)N(Cc1cccnc1)c1cccc(-c2nc3ccccc3s2)c1
EC50 (cells): 0.078 µM (active) | EC50 [3]: < 0.1 µM (active) | EC50 [4]: > 60 µM (not active)

CCCCNC(=O)c1cnc2ccc(S(=O)(=O)Nc3ccc(OCC)cc3)cc2c1O
IC50 [6]: > 50 µM (not active)

O=C(Nc1ccc2ccccc2c1)Nc1ccc2snnc2c1
EC50 [22]: 14.9 µM (active) | IC50 [1]: > 111 µM (not active) | EC50 [3]: 1.94 µM (active) | EC50 [4]: > 60 µM (not active) | EC50 [23]: 15.9 µM (active) | IC50 [2]: 10.1 µM (not active)

O=C(Nc1nnc(C2CCCO2)s1)c1ccc(Br)cc1 (stereo unspecified)
IC50 (Estrogen receptor beta): > 50 µM (not active)

C(=C\c1ccco1)/c1ccc2ccccc2n1
EC50 [24]: 4.25 µM (active) | IC50 [5]: 9.47 µM (active) | EC50 [25]: 15.2 µM (active)

COc1ccc(-c2nn3c(-c4ccc(F)cc4)nnc3s2)cc1
IC50 [7]: > 39.8 µM (not active) | IC50 [8]: > 39.8 µM (not active)

CCCO/C(O)=C1\C(C)=NC2=C(C(=O)CCC2)C1c1cccc(OC)c1OC (stereo unspecified)
IC50 [6]: 33.9 µM (not active)

COc1ccccc1NC(=O)C(=O)N/N=C/c1ccc([N+](=O)[O-])s1
EC50 [3]: 0.858 µM (active) | IC50 [5]: 2.56 µM (active) | EC50 [4]: > 60 µM (not active)

COc1cccc(/C=N/NC(=O)CO/N=C(\C)c2cccs2)c1OC
EC50 [9]: > 50 µM (active) | AC50 (Cytochrome P450 2C9): 39.8 µM (inconclusive)
